Source: US20210106698A1, “LIVER-SPECIFIC MRI CONTRAST AGENT INCLUDING MANGANESE SILICATE NANOPARTICLES” (POSTECH ACADEMY-INDUSTRY FOUNDATION, priority 2017, published 2021)

What was measured:
[1] = T1 relaxation / T1-weighted image of HMS suspensions (3.0-T MR scanner); assay type: physicochemical; settings: comparison value for free Mn2+
Procedure: The release profile of manganese ions from HMS was quantified at room temperature using 8 mg of HMS suspensions in 16 ml of citrate buffer at pH 5 and pH 6.2 and distilled water. 4 ml of each HMS suspensions was collected from samples at 15 minutes, 1 hour, 7 hours and 20 hours, and the nanoparticles (NPs) of the sample were removed by centrifugation at 15,000 rpm for 10 minutes, and each supernatant was filtered by using syringe filter with […] of pore size. The amount of each released manganese ion and the T1 relaxation time of the proton in each supernatant were quantified using ICP-AES and a 3.0-T clinical MR scanner (Philips, Achieva ver. 1.2, Philips Medical Systems, Best, The Netherlands).
The Mn release property and T1 contrast enhancing property of HMS prepared in Example 1-2 were tested according to Example 1-3.

[2] = T1-weighted MRI of supernatants with released Mn2+ ions (R1, r1); assay type: physicochemical; settings: MnCl2 aqueous solution
From the text: The contrast signal intensity of the photographed image was digitized (R1, unit=[…]), and shown in the graph of FIG. 9b. It is inferred that the released Mn^2+ ions can increase the contrast effect in T1-weighted image, on the basis that FIG. 9b is almost consistent with the graph of the release rate of Mn^2+ ions for each particle shown in FIG. 8e.
Next, the relationship between the concentration of Mn^2+ ions and the contrast intensity R1 of the image is shown in the graph of FIG. 9c. The slope of this graph is expressed as r1, and is a unique value for each material.

- r1 value of free manganese ions [1]: 7.8 s⁻¹ mM⁻¹
- r1 value for pure Mn^2+ ions [2]: about 7.4
SMILES: [Cl][Mn][Cl] [MnCl2]
